This note sets out measurements from US20250367329A1, “GENE THERAPY FOR TREATING MITOCHONDRIAL STRESS” (YISSUM RESEARCH DEVELOPMENT COMPANY OF THE HEBREW …, priority 2023, published 2025).

The test system of the data set is E6/E7LOW human hepatocytes. In words: Puromycin toxicity curves, LIVE/DEAD assay. The class given is cell-based. The note with it: 653 (female) genotype. How it is done:
E6/E7LOW human hepatocytes puromycin toxicity curves: Puromycin (13884, Cayman chemical) was two-fold serially diluted from 10 μg/ml to 0.3 μg/ml in proliferation medium and applied to E6/E7LOW human hepatocytes growing in 96-well plate format. The cells were monitored and imaged daily and on the 3rd day post exposure were analyzed with a LIVE/DEAD assay (L3224, ThermoFischer). The puromycin concentration killing practically all cells in ˜3 days was defined as 2.5 μg/ml for the 653 (female) genotype and 5 µg/ml for the 422 (male) genotype cells.

As for `COc1ccc(C[C@H](N)C(=O)N[C@H]2[C@@H](O)[C@H](n3cnc4c(N(C)C)ncnc43)O[C@@H]2CO)cc1` [Puromycin], the “puromycin concentration killing practically all cells in ˜3 days” value is 2.5 µg/mL.
